Experimental data as given in PMC6684226, “Neuropeptide B mediates female sexual receptivity in medaka fish, acting in a female-specific but reversible manner” (eLife, 2019).

Legend:
[1] = tested on: npbb expression in Vs/Vp and PMm/PMg/PPp; experiment: npbb expression in brain nuclei of gonad-intact medaka after immersion drug treatment (in situ hybridization); type: in vivo, medaka (Oryzias latipes); settings: n = 5
Description: (§1) DNA fragments of 645 bp, 647 bp, and 1520 bp corresponding to nucleotides 1–645 of the medaka npba cDNA (GenBank accession number NM_001308979), 1–647 of the medaka npbb EST clone of National BioResource Project (NBRP) Medaka (http://www.shigen.nig.ac.jp/medaka/) (clone ID: olova57o22), and 1699–3218 of the medaka npbwr2 cDNA (deposited in DDBJ/EMBL/GenBank with accession number LC375958), respectively, were PCR-amplified and subcloned into the pGEM-Teasy vector (Promega, Madison, WI). The resultant constructs were used to generate digoxigenin (DIG)-labeled cRNA probes for npba, npbb, and npbwr2 by using the DIG RNA Labeling Mix and T7 RNA polymerase (Roche Diagnostics). The procedure for in situ hybridization has been described previously ([Hiraki et al., 2012]). In brief, the brain, pituitary, and/or spinal cord were fixed in 4% paraformaldehyde (PFA), embedded in paraffin, and cut into 10 μm sections in the coronal plane. Hybridization signals were visualized by using alkaline phosphatase-conjugated anti-DIG antibody (Roche Diagnostics) and 5-bromo-4-chloro-3-indolyl phosphate/nitro blue tetrazolium (BCIP/NBT) substrate (Roche Diagnostics). Color development was allowed to proceed overnight or was stopped after 2–3 hr (for quantification of npba expression in Vs/Vp) or 15–30 min (for quantification of npba expression in PMm/PMg) to avoid saturation. All sections in each comparison were processed simultaneously under the same conditions.
(§2) To obtain quantitative data, the number of npba/npbb-expressing neurons in each brain nucleus or each brain/spinal cord region was counted manually. In some analyses, the resulting sections were photographed and converted to black and white binary images by thresholding using Adobe Photoshop (Adobe Systems, San Jose, CA), and the total area of npba/npbb expression was calculated by using ImageJ (http://rsbweb.nih.gov/ij/). The threshold was set manually by visual inspection of the images to successfully separate specific signals from background noise. Brain nuclei were identified by using medaka brain atlases ([Anken and Bourrat, 1998]; [Ishikawa et al., 1999]); http://www.shigen.nig.ac.jp/medaka/medaka_atlas/), supplemented with information from our Nissl-stained sections ([Kawabata et al., 2012]).
(§3) In another experiment, females with intact ovaries were treated with 100 ng/ml of KT or AI (Fadrozole; Sigma-Aldrich, St. Louis, MO) by immersion in water for 9 days. […] These fish were sampled on days 0 (untreated controls), 2, 5, and 9. The sex steroid concentration used was based on previously reported serum steroid levels in medaka ([Foran et al., 2002]; [Foran et al., 2004]; [Tilton et al., 2003]).

[2] = tested on: npba expression in the whole brain; experiment: npba expression in whole brain of ovariectomized ΔERE mutant females treated with E2 (real-time PCR); type: in vivo, medaka (Oryzias latipes); settings: OVX + 100 ng/ml E2, 6 days, n = 6 per group
[3] = tested on: npbb expression in Vs/Vp and PMm/PMg/PPp; experiment: npbb expression in brain nuclei of gonadectomized medaka after sex steroid supplementation (in situ hybridization); type: in vivo, medaka (Oryzias latipes); settings: n = 5
Description: DNA fragments of 645 bp, 647 bp, and 1520 bp corresponding to nucleotides 1–645 of the medaka npba cDNA (GenBank accession number NM_001308979), 1–647 of the medaka npbb EST clone of National BioResource Project (NBRP) Medaka (http://www.shigen.nig.ac.jp/medaka/) (clone ID: olova57o22), and 1699–3218 of the medaka npbwr2 cDNA (deposited in DDBJ/EMBL/GenBank with accession number LC375958), respectively, were PCR-amplified and subcloned into the pGEM-Teasy vector (Promega, Madison, WI). The resultant constructs were used to generate digoxigenin (DIG)-labeled cRNA probes for npba, npbb, and npbwr2 by using the DIG RNA Labeling Mix and T7 RNA polymerase (Roche Diagnostics). […] Color development was allowed to proceed overnight or was stopped after 2–3 hr (for quantification of npba expression in Vs/Vp) or 15–30 min (for quantification of npba expression in PMm/PMg) to avoid saturation. […]
To obtain quantitative data, the number of npba/npbb-expressing neurons in each brain nucleus or each brain/spinal cord region was counted manually. In some analyses, the resulting sections were photographed and converted to black and white binary images by thresholding using Adobe Photoshop (Adobe Systems, San Jose, CA), and the total area of npba/npbb expression was calculated by using ImageJ (http://rsbweb.nih.gov/ij/). […]

[4] = tested on: npba expression in Vs/Vp and PMm/PMg; experiment: npba expression in brain nuclei of gonad-intact medaka after immersion drug treatment (in situ hybridization); type: in vivo, medaka (Oryzias latipes); settings: ovary-intact adult females, n = 5
Description: as §1, §2, §3

[5] = tested on: estradiol-17β (E2) in the brain; experiment: Brain levels of E2 in KT-treated females (LC-MS/MS); type: in vivo, medaka (Oryzias latipes); settings: females treated with 100 ng/ml KT by immersion; within 2 days, low during remainder of treatment; n = 4 per sampling day; p<0.0001 on days 2, 5, and 9
Procedure: as §3
Dissected whole brains were frozen and stored at −80°C until analysis. Levels of E2 in the brains were analyzed by liquid chromatography coupled to tandem mass spectrometry (LC-MS/MS) at Aska Pharmamedical (Kanagawa, Japan).

[6] = tested on: ER expression in Vs/Vp and PMm/PMg; settings: males treated with estrogen; ref Hiraki et al., 2012; cited from earlier work
Description: Importantly, our results provide insight into the mechanisms underlying the reversal of sexually dimorphic npba expression. […] Considering these findings, it seems plausible that this estrogen-induced npba expression is not fully realized until sufficient ER expression is achieved.

Cckar expression = settings: ref Xu et al., 2012, cited from earlier work
Description: Another distinctive aspect of npba expression is the bidirectional reversibility of sexual dimorphism (both from female-typical to male-typical pattern and from male-typical to female-typical pattern). […] In mice, for example, the cholecystokinin receptor gene (Cckar) implicated in female sexual receptivity is expressed in the ventr ...

[7] = tested on: npba expression in Vs/Vp and PMm/PMg; settings: estrogen replacement, ref Hiraki et al., 2014; cited from earlier work
Description: We determined whether the sexual phenotype of npba expression can be reversed from the female to the male pattern, and vice versa, by altering the adult sex steroid milieu. […] Here, we first tested whether npba expression in these brain nuclei can be induced in males by castration and sex steroid supplementation.

[8] = tested on: npba expression in Vs/Vp and PMm/PMg; parameters: method as in Kikuchi et al., 2019; settings: adult males treated with estrogen; ref Kikuchi et al., 2019; cited from earlier work

C[C@]12CC[C@@H]3c4ccc(O)cc4CC[C@H]3[C@@H]1CC[C@@H]2O [E2, estradiol-17β]
npbb-expressing neurons in Vs/Vp ([1]; testis-intact adult males, 100 ng/ml E2 by immersion, p=0.0369): a few npbb-expressing neurons were newly induced in Vs/Vp | npba expression in the whole brain, mutant versus wild-type females ([2]; p=0.0023): not able to restore npba expression to the level present in wild-type females | npba expression in the whole brain after ovariectomy and E2 treatment ([2]; ΔERE mutant females): restored by E2 treatment | npbb-expressing neurons in Vs/Vp of castrated males ([3]; castrated adult males, 100 ng/ml E2, 6 days, p<0.0001): induced a few npbb-expressing neurons in Vs/Vp

C[C@]12CC(=O)[C@H]3[C@@H](CCC4=CC(=O)CC[C@@]43C)[C@@H]1CC[C@@H]2O [KT, 11-ketotestosterone]
npbb expression in PMm/PMg/PPp ([1]; ovary-intact adult females, 100 ng/ml KT by immersion, number of neurons p=0.0038 on day 9, total area p=0.0021 and <0.0001 on days 5 and 9): significant decrease | number of npbb-expressing neurons in Vs/Vp ([1]; ovary-intact adult females, 100 ng/ml KT by immersion, p<0.0001 on days 5 and 9): undetectable or nearly undetectable levels | total area of npbb expression in Vs/Vp ([1]; ovary-intact adult females, 100 ng/ml KT by immersion, p=0.0235, <0.0001, <0.0001 on days 2, 5, and 9): undetectable or nearly undetectable levels | number of npba-expressing neurons in PMm/PMg ([4]; 100 ng/ml KT by immersion, 9 days): unchanged | total area of npba expression in Vs/Vp ([4]; 100 ng/ml KT by immersion, 9 days, p=0.0002 on day 2, p<0.0001 on days 5 and 9): undetectable or nearly undetectable levels | number of npba-expressing neurons in Vs/Vp ([4]; 100 ng/ml KT by immersion, days 0, 2, 5, 9, p<0.0001 on days 5 and 9 versus day 0): undetectable or nearly undetectable levels | total area of npba expression in PMm/PMg ([4]; 100 ng/ml KT by immersion, p=0.0068 on day 9): significant decline | brain E2 levels, percent of untreated controls [5]: less than 5% | npbb expression in Vs/Vp and PMm/PMg/PPp after ovariectomy (restoration) ([3]; ovariectomized adult females, 100 ng/ml KT, 6 days): not by KT

N#Cc1ccc(C2CCCc3cncn32)cc1 (stereo not drawn) [AI, Fadrozole]
npbb expression in PMm/PMg/PPp (significant decrease) ([1]; ovary-intact adult females, 100 ng/ml AI by immersion, 9 days): not AI treatment | number of npbb-expressing neurons in Vs/Vp ([1]; ovary-intact adult females, 100 ng/ml AI by immersion, p=0.0002 and <0.0001 on days 5 and 9): undetectable or nearly undetectable levels | total area of npbb expression in Vs/Vp ([1]; ovary-intact adult females, 100 ng/ml AI by immersion, p=0.0013 and 0.0009 on days 5 and 9): undetectable or nearly undetectable levels | number of npba-expressing neurons in Vs/Vp (compared with KT treatment) ([4]; 100 ng/ml AI by immersion, p<0.0001 on days 2, 5, and 9): essentially the same results | total area of npba expression in Vs/Vp (compared with KT treatment) ([4]; 100 ng/ml AI by immersion, p=0.0063 and 0.0025 on days 5 and 9): essentially the same results | total area of npba expression in PMm/PMg (compared with KT treatment) ([4]; 100 ng/ml AI by immersion, p=0.0108 on day 9): essentially the same results

estrogen
ER expression in Vs/Vp and PMm/PMg of males [6]: induces ER expression | Cckar expression in ventromedial nucleus of the hypothalamus, males (Cckar expression; adult males treated with estrogen): does not induce expression of Cckar | Cckar expression in ventromedial nucleus of the hypothalamus, females (Cckar expression; ovariectomized adult females treated with estrogen): reinstated by treatment with estrogen | npba expression in Vs/Vp and PMm/PMg of ovariectomized females [7]: restored by estrogen replacement | emergence of Npba-expressing neurons in adult males [8]: emerged in adult males treated with estrogen
